Test results published in US8927717B1, “Thiochromeno[2,3-c]quinolin-12-one derivatives, preparation method and application thereof” (National Defense Medical Center, priority 2014, dated 2015).

Key:
[1] = system: SK-OV-3; type: cell-based; details: SK-OV-3; 10^−5 molar
[2] = system: MDA-MB-231/ATCC; type: cell-based; details: MDA-MB-231/ATCC; 10^−5 molar
[3] = system: SF-295; type: cell-based; details: SF-295; 10^−5 molar
[4] = system: NCI-H226; type: cell-based; details: NCI-H226; 10^−5 molar
[5] = system: A498; type: cell-based; details: A498; 10^−5 molar
[6] = system: KM12; assay: cells; type: cell-based; details: KM12; 10^−5 molar
[7] = system: OVCAR-3; type: cell-based; details: OVCAR-3; 10^−5 molar
[8] = system: T-47D; type: cell-based; details: T-47D; 10^−5 molar
[9] = system: COLO 205; type: cell-based; details: COLO 205; 10^−5 molar
[10] = system: MALME-3M; type: cell-based; details: MALME-3M; 10^−5 molar
[11] = system: NCI-H460; type: cell-based; details: NCI-H460; 10^−5 molar
[12] = system: NCI-H522; type: cell-based; details: NCI-H522; 10^−5 molar
[13] = system: DU-145; type: cell-based; details: DU-145; 10^−5 molar
[14] = system: NCI-H23; type: cell-based; details: NCI-H23; 10^−5 molar
[15] = system: SK-MEL-5; type: cell-based; details: SK-MEL-5; 10^−5 molar
[16] = system: CCRF-CEM; type: cell-based; details: CCRF-CEM; 10^−5 molar
[17] = system: ACHN; type: cell-based; details: ACHN; 10^−5 molar
[18] = system: NCI/ADR-RES; type: cell-based; details: NCI/ADR-RES; 10^−5 molar
[19] = system: OVCAR-4; type: cell-based; details: OVCAR-4; 10^−5 molar
[20] = system: UACC-62; type: cell-based; details: UACC-62; 10^−5 molar
[21] = system: RXF 393; type: cell-based; details: RXF 393; 10^−5 molar
[22] = system: SF-539; type: cell-based; details: SF-539; 10^−5 molar
[23] = system: MOLT-4; type: cell-based; details: MOLT-4; 10^−5 molar
[24] = system: MDA-MB-486; type: cell-based; details: MDA-MB-486; 10^−5 molar
[25] = system: OVCAR-8; type: cell-based; details: OVCAR-8; 10^−5 molar
[26] = system: MDA-MB-435; type: cell-based; details: MDA-MB-435; 10^−5 molar
[27] = system: SF-268; type: cell-based; details: SF-268; 10^−5 molar
[28] = system: SK-MEL-28; type: cell-based; details: SK-MEL-28; 10^−5 molar
[29] = system: 60 cancer cell lines; assay: NCI 60-cell screen, SRB, whole panel (mean, delta, range); type: cell-based; details: 10^−5 molar
[30] = system: BT-549; type: cell-based; details: BT-549; 10^−5 molar
[31] = system: SNB-75; type: cell-based; details: SNB-75; 10^−5 molar
[32] = system: PC-3; type: cell-based; details: PC-3; 10^−5 molar
[33] = system: M14; type: cell-based; details: M14; 10^−5 molar
[34] = system: SR; type: cell-based; details: SR; 10^−5 molar
[35] = system: CAKI-1; type: cell-based; details: CAKI-1; 10^−5 molar
[36] = system: UO-31; type: cell-based; details: UO-31; 10^−5 molar
[37] = system: SNB-19; type: cell-based; details: SNB-19; 10^−5 molar
[38] = system: IGROV1; type: cell-based; details: IGROV1; 10^−5 molar
[39] = system: HCC-2998; type: cell-based; details: HCC-2998; 10^−5 molar
[40] = system: HCT-15; type: cell-based; details: HCT-15; 10^−5 molar
[41] = system: SN12C; type: cell-based; details: SN12C; 10^−5 molar
[42] = system: UACC-257; type: cell-based; details: UACC-257; 10^−5 molar
[43] = system: HL-60(TB); type: cell-based; details: HL-60(TB); 10^−5 molar
[44] = system: OVCAR-5; type: cell-based; details: OVCAR-5; 10^−5 molar
[45] = system: HS 578T; type: cell-based; details: HS 578T; 10^−5 molar
[46] = system: SW-620; type: cell-based; details: SW-620; 10^−5 molar
[47] = system: MCF7; type: cell-based; details: MCF7; 10^−5 molar
[48] = system: 786-0; type: cell-based; details: 786-0; 10^−5 molar
[49] = system: HT29; type: cell-based; details: HT29; 10^−5 molar
[50] = system: HCT-116; type: cell-based; details: HCT-116; 10^−5 molar
[51] = system: K-562; type: cell-based; details: K-562; 10^−5 molar
[52] = system: TK-10; type: cell-based; details: TK-10; 10^−5 molar
[53] = system: A549/ATCC; type: cell-based; details: A549/ATCC; 10^−5 molar
[54] = system: RPMI-8226; type: cell-based; details: RPMI-8226; 10^−5 molar
[55] = system: HOP-62; type: cell-based; details: HOP-62; 10^−5 molar

Work on O=c1c2cc(Cl)ccc2sc2c(NC3CCCCC3)nc3ccccc3c12 [Compound N21, 10-Chloro-6-(cyclohexylamino)-12H-thiochromeno[2,3-c]quinolin-12-one] yielded a Growth percent [1] of 94.54%, a Growth percent [2] of 77.17% and a Growth percent [3] of 92.22%. For the same compound, the Growth percent [4] was 93.26%, the Growth percent [5] was 93.00% and the Growth percent [6] was 112.90%. It also gave a Growth percent [7] of 91.85%, a Growth percent [8] of 72.43% and a Growth percent [9] of 103.96%. It also gave a Growth percent [10] of 93.42%, a Growth percent [11] of 91.29% and a Growth percent [12] of 83.95%. For the same compound, the Growth percent [13] was 104.25%, the Growth percent [14] was 91.11% and the Growth percent [15] was 97.00%. The Growth percent [16] was 92.23%, the Growth percent [17] was 97.31% and the Growth percent [18] was 95.91%. It also gave a Growth percent [19] of 72.10%, a Growth percent [20] of 93.23% and a Growth percent [21] of 97.03%. For the same compound, the Growth percent [22] was 91.20%, the Growth percent [23] was 92.42% and the Growth percent [24] was 108.92%. The Growth percent [25] was 74.91%, the Growth percent [26] was 106.98% and the Growth percent [27] was 92.06%. For the same compound, the Growth percent [28] was 101.79%, the “Growth percent, Delta” value ([29]; delta over panel) was 46.48% and the “Growth percent, Mean” value ([29]; mean over panel) was 92.62%. The “Growth percent, Range” value ([29]; range over panel) was 81.82%, the Growth percent [30] was 105.53% and the Growth percent [31] was 81.91%. The Growth percent [32] was 75.02%, the Growth percent [33] was 103.41% and the Growth percent [34] was 85.52%. The Growth percent [35] was 72.76%, the Growth percent [36] was 72.52% and the Growth percent [37] was 106.72%. It also gave a Growth percent [38] of 83.31%, a Growth percent [39] of 109.83% and a melting point of 196 to 197 °C. The Growth percent [40] was 91.71%, the Growth percent [41] was 89.12% and the Growth percent [42] was 103.68%. It also gave a Growth percent [43] of 107.06%, a Growth percent [44] of 98.06% and a Growth percent [45] of 94.22%. It also gave a Growth percent [46] of 87.98%, a Growth percent [47] of 46.14% and a Growth percent [48] of 97.69%. It also gave a Growth percent [49] of 105.11%, a Growth percent [50] of 65.37% and a Growth percent [51] of 102.86%. For the same compound, the Growth percent [52] was 127.96%, the Growth percent [53] was 85.28% and the Growth percent [54] was 94.56%. The Growth percent [55] was 101.46%.
